Data taken from US20210283099A1, “CDC7 KINASE INHIBITORS AND USES THEREOF” (SLOAN-KETTERING INSTITUTE FOR CANCER RESEARCH, priority 2010, published 2021).

Legend:
[1] = system: HL60; test: Cytotoxicity assay (Alamar blue); type: cell-based; settings: HL-60, Human Acute Promyelocytic leukemia
Protocol: (§1) FIGS. 16A-16B. Granaticin A and Granaticin B inhibit multiple tumor types: The indicated cell lines and primary patient samples were tested against the compounds listed in standard cytotoxicity assays (12 point dose response using Alamar blue reduction as an indicator of cell viability). Assays were done in triplicate and IC50 determinations were run in 12-point serial dilutions from […] to 5 nM. […] These include ras and EGFR gatekeeper mutation containing cell lines in addition to p53 mutant cell lines and other known chemotherapy resistant cell lines. Specifically, this included multi-drug resistance phenotype (MDR-overexpressing) cell lines from multiple hematologic and solid tumor cell lines. Table 1 highlights a series of primary patient leukemia samples-both acute and chronic and treatment naïve and refractory tested against granaticins A and B and Derivatives 1 and 2 (see Examples).

[2] = system: H2030; test: Cytotoxicity assay (Alamar blue); type: cell-based; settings: NCI-H2030, human lung adenocarcinoma, wild-type EGFR, G12C KRAS mutation, G262V P53 mutation, PTEN null
Protocol: as §1

[3] = system: MESO47; test: Cytotoxicity assay (Alamar blue); type: cell-based; settings: human mesothelioma, WT-1 overexpression
Protocol: as §1

[4] = system: MCF-7; test: Cytotoxicity assay (Alamar blue); type: cell-based; settings: MCF7, human invasive breast ductal carcinoma, estrogen and progesterone receptor positive
Protocol: as §1

[5] = system: JEKO; test: Cytotoxicity assay (Alamar blue); type: cell-based; settings: Human Mantle Cell Lymphoma
Protocol: as §1

[6] = system: Y79; test: Cytotoxicity assay (Alamar blue); type: cell-based; settings: Human retinoblastoma
Protocol: as §1

[7] = system: H1734; test: Cytotoxicity assay (Alamar blue); type: cell-based; settings: NCI-H1734, Human lung adenocarcinoma, G13C KRAS mutation
Protocol: as §1

[8] = system: H1975; test: Cytotoxicity assay (Alamar blue); type: cell-based; settings: NCI-H1975, Human lung adenocarcinoma, T790M/L858R EGFR mutation, R273H p53 mutation, PTEN null, wild-type KRAS
Protocol: as §1

[9] = system: JAQU; test: Cytotoxicity assay (Alamar blue); type: cell-based; settings: Homo sapiens, Patient sample of relapsed/refractory pre-B cell acute lymphoblastic leukemia
Protocol: as §1

[10] = system: PhALL3.1; test: Cytotoxicity assay (Alamar blue), patient leukemia sample; type: cell-based, human; settings: for IC50: Homo sapiens, PhALL3.1
Protocol: as §1
(§2) Table 1 highlights a series of primary patient leukemia samples-both acute and chronic and treatment naïve and refractory and the effect of granaticin A, granaticin B, derivative 1, and derivative 2 to inhibit cellular proliferation. […] The two starred samples represent serial samples taken from the same patients after they received 2-3 cycles of additional high dose salvage chemotherapy and indicate that although refractory to salvage chemotherapy, the Cdc7 pathway remains a potentially efficacious target as the sensitivity to these compounds remains unchanged. Importantly, each patient sample was resistant to the prior therapy received using this assay.

[11] = system: PhALL3.1 cells; test: Caspase 3 fluorometric activity assay in G1 synchronized cells; type: cell-based, human; settings: 10 hours following release of G1 synchronized cells
[12] = system: AML, de novo; test: Cytotoxicity assay (Alamar blue), patient leukemia sample; type: cell-based; settings: Homo sapiens
Protocol: as §1, §2

[13] = system: Biphenotypic acute leukemia 1; test: as above; type: cell-based; settings: Homo sapiens
Protocol: as §1, §2

[14] = system: CML, untreated; test: as above; type: cell-based; settings: Homo sapiens
Protocol: as §1, §2

[15] = system: AML, primary refractory; test: as above; type: cell-based; settings: Homo sapiens
Protocol: as §1, §2

[16] = system: AMMoL; test: as above; type: cell-based; settings: Homo sapiens
Protocol: as §1, §2

[17] = system: Biphenotypic acute leukemia 1*; test: as above; type: cell-based; settings: Homo sapiens, second sample from the same patient following high-dose chemotherapy
Protocol: as §1, §2

[18] = system: AML, primary refractory 1; test: as above; type: cell-based; settings: Homo sapiens
Protocol: as §1, §2

[19] = system: AML, relapsed s/p HSCT; test: as above; type: cell-based; settings: Homo sapiens
Protocol: as §1, §2

[20] = system: AML, primary refractory 1*; test: as above; type: cell-based; settings: Homo sapiens, second sample from the same patient following high-dose chemotherapy
Protocol: as §1, §2

[21] = system: AML, relapsed; test: as above; type: cell-based; settings: Homo sapiens
Protocol: as §1, §2

[22] = system: ALL, Ph+; test: as above; type: cell-based; settings: Homo sapiens
Protocol: as §1, §2

[23] = system: CLL, untreated, chromosome 17 p del.; test: as above; type: cell-based; settings: Homo sapiens
Protocol: as §1, §2

[24] = system: PhALL3.1; test: SCID-Beige mouse intraperitoneal tumor model of PhALL3.1; type: in vivo
Protocol: FIGS. 19A-19B. Granaticin A Inhibits growth of PhALL3. 1 in vivo: Using a SCID-Beige mouse intraperitoneal tumor model of PhALL3.1, mice were intraperitoneally treated with vehicle control (DMSO) or the indicated doses of granaticin A on days 3, 6, 9, and 12. Day 16 in vivo bioluminescence imaging (FIG. 19A) and quantitation of tumor volume are shown (FIG. 19B) and indicate 90% reduction in tumor volume by Day 16 in mice treated at the highest dose (3.0 mg/kg).

[25] = system: JOKE-2 cells; test: Trypan blue viability and caspase-3 assay; type: cell-based, human; settings: 1 microM
Protocol: FIGS. 24A-24B. […] The JOKE-2 cell line was derived from a patient with Philadelphia chromosome positive Acute Lymphoblastic Leukemia (Ph-ALL). […] FIG. 24A: Joke-2 cells were grown in the presence of DMSO control or granaticin B (1 microM) for the indicated times and viability was measured after staining a cell sample in trypan blue (Sigma-Aldrich).

[26] = system: SKMEL-28; test: Nude mouse xenograft, melanoma; type: in vivo; settings: 2.5 mg/kg/day continuous, osmotic diffusion pumps; sections at day 28
Protocol: FIG. 22A-22C. Granaticin B is Effective Against Multiple Solid Tumors: granaticin B is efficacious against mouse models of melanoma (FIG. 22A), non-small cell lung cancer (FIG. 22B), and ovarian cancer (FIG. 22C). For the ovarian cancer experiments, SCID-Beige mice were injected with 5 million OVCAR3 cells that had been transduced with a GFP-firefly luciferase expressing plasmid (Frattini, M. G. and Brentjens, R. J., unpublished data). These cells were then injected intraperitoneally into 4 cohorts of mice on Day 1. From days 7-14 the mice were injected daily with the indicated concentrations of granaticin B in the intraperitoneal space. […] Nude mice were treated with 2.5 mg/kg/day granaticin B in a continuous fashion using osmotic diffusion pumps. Sections of the treated xenografts are shown after euthanasia at day 28 and H&E staining.

[27] = relapsed (first of two such lines, r11)
[28] = relapsed (second of two such lines, r12)

Structure (SMILES) | IC50 [1] | IC50 [2] | IC50 [3] | IC50 [4] | IC50 [5] | IC50 [6] | IC50 [7] | IC50 [8] | IC50 [9] | IC50 [10] | IC50 [12] | IC50 [13] | IC50 [14] | IC50 [15] | IC50 [16] | IC50 [17] | IC50 [18] | IC50 [19] | IC50 [20] | IC50 [21, 27] | other results
CC1OC2CC(O)C1(O)c1c(O)c3c(c(O)c12)C(=O)C1=C(C3=O)[C@H](C)O[C@H]2CC(=O)O[C@@H]12 (some centres unmarked) [Granaticin A, granaticin A] | 140 nM | 490 nM | 610 nM | 170 nM | 40 nM | 60 nM | 240 nM | 120 nM | 50 nM | 140 nM | 720 nM | 300 nM | 260 nM | 770 nM | 990 nM | 540 nM | 750 nM | 1880 nM | 630 nM | 1200 nM | activity in the cell based assays ([10]; PhALL3.1 cell line): very active; caspase 3 activity / apoptosis [11]: induces Caspase 3-mediated apoptosis; IC50 [21, 28]: 210 nM; IC50 [22]: 560 nM; IC50 [23]: 460 nM; organ toxicity at necropsy ([24]; all mice examined at each dose level): no significant (grade 2 or higher) organ toxicity; reduction in tumor volume ([24]; highest dose 3.0 mg/kg intraperitoneally on days 3, 6, 9, 12, Day 16 bioluminescence imaging): 90%
CC1OC2CC(O[C@H]3CC[C@H](O)[C@H](C)O3)C1(O)c1c(O)c3c(c(O)c12)C(=O)C1=C(C3=O)[C@H](C)O[C@H]2CC(=O)O[C@@H]12 (some centres unmarked) [Granaticin B, granaticin B] | 90 nM | 220 nM | 380 nM | 130 nM | 20 nM | 50 nM | 40 nM | 30 nM | 10 nM | 30 nM | 180 nM | 40 nM | 80 nM | 140 nM | 490 nM | 100 nM | 110 nM | 620 nM | 100 nM | 100 nM | caspase-3 activation [25]: only activated in cells exposed to granaticin B; effect on viability (trypan blue) [25]: very effective; efficacy in mouse model of melanoma [26]: efficacious; IC50 [21, 28]: 50 nM; IC50 [22]: 190 nM; IC50 [23]: 310 nM
